Key:
plasma glucose = experiment: Plasma glucose and insulin pharmacodynamics; type: in vivo, human; conditions: 33 of 51; blood glucose >200 mg/dl
p110α = conditions: read-out: IC50 p110α; cited from earlier work

COc1c(OCCCN2CCOCC2)ccc2c1N=C(NC(=O)c1cnc(N)nc1)N1CCN=C21 [copanlisib, Copanlisib]
non-diabetic patients receiving at least 1 dose of short-acting insulin (plasma glucose): 65% | IC50 (p110α): 500 pM

Source: publication PMC5035790 (Annals of Oncology, 2016)
